Toxic doses and inconclusive results are not listed. Rule for the calls: active = survival T/C of 150% or more; inactive = T/C below 125% in these data.
Tested on: CD2F1 mice, L1210 leukemia ip, survival T/C
Test: NCI In Vivo Anticancer Drug Screen. Data for tumor model L1210 Leukemia (intraperitoneal) in CD2F1 (CDF1) mice
Details: higher = longer survival
How it was run: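 Transplantable tumor in mice; compound-treated vs vehicle-treated groups. Read-out = treated/control ratio of the measured endpoint.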

[1] = endpoint: mean survival time, dose: 50.0 mg/kg/injection, schedule: Q01DX009 (ip), vehicle: saline with Tween-80
[2] = endpoint: mean survival time, dose: 100.0 mg/kg/injection, schedule: Q01DX009 (ip), vehicle: saline with Tween-80
[3] = endpoint: mean survival time, dose: 100.0 mg/kg/injection, schedule: Q04DX003 (ip), vehicle: saline with Tween-80
[4] = endpoint: mean survival time, dose: 200.0 mg/kg/injection, schedule: Q01DX009 (ip), vehicle: saline with Tween-80
[5] = endpoint: mean survival time, dose: 100.0 mg/kg/injection, schedule: Q01DX001 (ip), vehicle: saline with Tween-80
[6] = endpoint: mean survival time, dose: 200.0 mg/kg/injection, schedule: Q01DX001 (ip), vehicle: saline with Tween-80
[7] = endpoint: mean survival time, dose: 400.0 mg/kg/injection, schedule: Q01DX001 (ip), vehicle: saline with Tween-80
[8] = endpoint: mean survival time, dose: 200.0 mg/kg/injection, schedule: Q04DX003 (ip), vehicle: saline with Tween-80
[9] = endpoint: mean survival time, dose: 400.0 mg/kg/injection, schedule: Q01DX009 (ip), vehicle: saline with Tween-80
[10] = endpoint: mean survival time, dose: 400.0 mg/kg/injection, schedule: Q04DX003 (ip), vehicle: saline with Tween-80
[11] = endpoint: mean survival time, dose: 100.0 mg/kg/injection, schedule: Q01DX001 (ip), vehicle: saline
[12] = endpoint: mean survival time, dose: 200.0 mg/kg/injection, schedule: Q01DX001 (ip), vehicle: saline
[13] = endpoint: mean survival time, dose: 400.0 mg/kg/injection, schedule: Q01DX001 (ip), vehicle: saline

Measured: T/C

CC(=O)CC(C)(C)N
inactive: [1] 94 % of control | [2] 97 % of control | [3] 97 % of control | [4] 92 % of control

CC(C)CC1(C(C)C)C(=O)NC(=S)NC1=O
inactive: endpoint: mean survival time, dose: 5.0 mg/kg/injection, schedule: Q01DX001 (ip), vehicle: saline 102 % of control | endpoint: mean survival time, dose: 10.0 mg/kg/injection, schedule: Q01DX001 (ip), vehicle: saline 96 % of control | endpoint: mean survival time, dose: 20.0 mg/kg/injection, schedule: Q01DX001 (ip), vehicle: saline 98 % of control | endpoint: mean survival time, dose: 40.0 mg/kg/injection, schedule: Q01DX001 (ip), vehicle: saline 101 % of control

OCC(O)C(O)C(O)c1csc(=S)[nH]1 (stereo not given)
inactive: [5] 97 % of control | [6] 103 % of control | [7] 100 % of control

C/C=C/CC1CCCCC1C (stereo not given)
inactive: [1] 96 % of control | [2] 96 % of control | [4] 108 % of control

CCOC(=O)NC1=C(N2CC2)C(=O)C(NC(=O)OCC)=C(N2CC2)C1=O
inactive: endpoint: mean survival time, dose: 1.25 mg/kg/injection, schedule: Q01DX009 (oral), vehicle: other 87 % of control | endpoint: mean survival time, dose: 1.25 mg/kg/injection, schedule: Q01DX009 (oral), vehicle: saline 98 % of control | endpoint: mean survival time, dose: 2.5 mg/kg/injection, schedule: Q01DX009 (oral), vehicle: other 97 % of control | endpoint: mean survival time, dose: 2.5 mg/kg/injection, schedule: Q01DX009 (oral), vehicle: saline 94 % of control | endpoint: mean survival time, dose: 4.0 mg/kg/injection, schedule: Q01DX009 (sc), vehicle: other 93 % of control | endpoint: mean survival time, dose: 10.0 mg/kg/injection, schedule: Q01DX009 (oral), vehicle: other 95 % of control | endpoint: mean survival time, dose: 16.0 mg/kg/injection, schedule: Q04DX003 (ip), vehicle: other 90 % of control | endpoint: mean survival time, dose: 20.0 mg/kg/injection, schedule: Q01DX009 (oral), vehicle: other 87 % of control | endpoint: median survival time, dose: 0.25 mg/kg/injection, schedule: Q01DX009 (ip), vehicle: saline with Tween-80 97 % of control | endpoint: median survival time, dose: 0.5 mg/kg/injection, schedule: Q01DX009 (ip), vehicle: saline with Tween-80 110 % of control | endpoint: median survival time, dose: 1.0 mg/kg/injection, schedule: Q08DX002 (ip), vehicle: saline with Tween-80 110 % of control | endpoint: median survival time, dose: 4.0 mg/kg/injection, schedule: Q01DX009 (ip), vehicle: saline with Tween-80 90 % of control

c1ccc2nc(-c3cc4ccccc4s3)ccc2c1
inactive: [2] 103 % of control | [3] 107 % of control | [4] 100 % of control | [8] 101 % of control | [9] 97 % of control | [10] 96 % of control

CCOC(=O)C(C#N)C1CNP(=O)(N(CCCl)CCCl)OC1 (stereo not given)
inactive: endpoint: mean survival time, dose: 31.25 mg/kg/injection, schedule: Q01DX001 (ip), vehicle: DMSO 98 % of control | endpoint: mean survival time, dose: 62.5 mg/kg/injection, schedule: Q01DX001 (ip), vehicle: DMSO 98 % of control | endpoint: mean survival time, dose: 125.0 mg/kg/injection, schedule: Q01DX001 (ip), vehicle: DMSO 100 % of control | endpoint: mean survival time, dose: 250.0 mg/kg/injection, schedule: Q01DX001 (ip), vehicle: DMSO 100 % of control | endpoint: mean survival time, dose: 500.0 mg/kg/injection, schedule: Q01DX001 (ip), vehicle: DMSO 112 % of control | endpoint: mean survival time, dose: 1000.0 mg/kg/injection, schedule: Q01DX001 (ip), vehicle: DMSO 115 % of control

CC(C)NC(=O)NC(C)C
inactive: [11] 107 % of control | [12] 102 % of control | [13] 100 % of control

Cc1cc2nc(-c3ccccc3)c(-c3ccccc3)nc2cc1C
inactive: [2] 92 % of control | [3] 94 % of control | [4] 92 % of control | [8] 91 % of control | [9] 93 % of control | [10] 95 % of control

NNC(=O)c1cc2ccccc2cc1O
inactive: [2] 97 % of control | [4] 86 % of control | [9] 94 % of control

N#CN=[N+]([O-])c1ccc(C(=O)O)cc1
inactive: endpoint: mean survival time, dose: 1.87 mg/kg/injection, schedule: Q01DX009 (ip), vehicle: Klucel (hydroxypropylcellulose) (HPC) 106 % of control | endpoint: mean survival time, dose: 3.75 mg/kg/injection, schedule: Q01DX009 (ip), vehicle: Klucel (hydroxypropylcellulose) (HPC) 95 % of control | endpoint: mean survival time, dose: 7.5 mg/kg/injection, schedule: Q01DX009 (ip), vehicle: Klucel (hydroxypropylcellulose) (HPC) 95 % of control | endpoint: mean survival time, dose: 15.0 mg/kg/injection, schedule: Q01DX009 (ip), vehicle: Klucel (hydroxypropylcellulose) (HPC) 96 % of control | endpoint: mean survival time, dose: 30.0 mg/kg/injection, schedule: Q01DX009 (ip), vehicle: Klucel (hydroxypropylcellulose) (HPC) 98 % of control | endpoint: mean survival time, dose: 60.0 mg/kg/injection, schedule: Q01DX009 (ip), vehicle: Klucel (hydroxypropylcellulose) (HPC) 106 % of control | endpoint: median survival time, dose: 1.87 mg/kg/injection, schedule: Q01DX009 (ip), vehicle: Klucel (hydroxypropylcellulose) (HPC) 101 % of control | endpoint: median survival time, dose: 3.75 mg/kg/injection, schedule: Q01DX009 (ip), vehicle: Klucel (hydroxypropylcellulose) (HPC) 95 % of control | endpoint: median survival time, dose: 7.5 mg/kg/injection, schedule: Q01DX009 (ip), vehicle: Klucel (hydroxypropylcellulose) (HPC) 95 % of control | endpoint: median survival time, dose: 15.0 mg/kg/injection, schedule: Q01DX009 (ip), vehicle: Klucel (hydroxypropylcellulose) (HPC) 109 % of control | endpoint: median survival time, dose: 30.0 mg/kg/injection, schedule: Q01DX009 (ip), vehicle: Klucel (hydroxypropylcellulose) (HPC) 93 % of control

O=C(O)C[Se]CC(=O)O
inactive: [11] 109 % of control | [12] 103 % of control

Nc1cccc2ccc(S(=O)(=O)O)cc12
inactive: [2] 101 % of control | [4] 106 % of control

CN(C)N=Nc1ccc(C(=O)N/N=C/c2ccccc2[N+](=O)[O-])cc1
inactive: endpoint: mean survival time, dose: 100.0 mg/kg/injection, schedule: Q04DX003 (ip), vehicle: saline 104 % of control | endpoint: mean survival time, dose: 200.0 mg/kg/injection, schedule: Q04DX003 (ip), vehicle: saline 101 % of control | endpoint: mean survival time, dose: 400.0 mg/kg/injection, schedule: Q04DX003 (ip), vehicle: saline 115 % of control

CN1c2ccccc2C2CC(CC#N)CC(=O)C21 (stereo not given)
inactive: [5] 96 % of control | [6] 93 % of control | [7] 95 % of control

OCC1OC(n2nnc3cc[nH]c(=S)c32)C(O)C1O (stereo not given)
inactive: endpoint: mean survival time, dose: 11.9 mg/kg/injection, schedule: Q01DX005 (ip), vehicle: water 96 % of control | endpoint: mean survival time, dose: 23.8 mg/kg/injection, schedule: Q01DX005 (ip), vehicle: water 113 % of control

COc1ccc(-n2cnnn2)cc1
inactive: [3] 101 % of control | [8] 106 % of control | [10] 112 % of control

CCCCCCC1=C(O)C(=O)C(CCCCCC)=C(O)C1=O
inactive: [11] 100 % of control | [12] 97 % of control | [13] 97 % of control

C=CCNc1ncnc2c1ncn2C1OC(CO)C(O)C1O (stereo not given)
inactive: endpoint: mean survival time, dose: 75.0 mg/kg/injection, schedule: Q01DX001 (ip), vehicle: other 112 % of control | endpoint: mean survival time, dose: 150.0 mg/kg/injection, schedule: Q01DX001 (ip), vehicle: other 103 % of control

OC1C2CCC1C(N1CCOCC1)CC2 (stereo not given)
inactive: [1] 103 % of control | [2] 109 % of control | [3] 98 % of control | [4] 97 % of control | [8] 102 % of control

CC1(Br)CS(=O)(=O)CC1(C)Br (stereo not given)
inactive: endpoint: mean survival time, dose: 75.0 mg/kg/injection, schedule: Q01DX001 (ip), vehicle: saline with Tween-80 104 % of control | endpoint: mean survival time, dose: 150.0 mg/kg/injection, schedule: Q01DX001 (ip), vehicle: saline with Tween-80 98 % of control | endpoint: mean survival time, dose: 300.0 mg/kg/injection, schedule: Q01DX001 (ip), vehicle: saline with Tween-80 101 % of control

O=[N+]([O-])c1ccc(SSc2ccc([N+](=O)[O-])cn2)nc1
inactive: [1] 93 % of control | [2] 89 % of control | [3] 100 % of control | [8] 100 % of control

CC1(C)C2CC=C(CCN=[N+]=[N-])C1C2 (stereo not given)
inactive: endpoint: mean survival time, dose: 50.0 mg/kg/injection, schedule: Q01DX009 (ip), vehicle: saline sonified 97 % of control | endpoint: mean survival time, dose: 100.0 mg/kg/injection, schedule: Q01DX009 (ip), vehicle: saline sonified 97 % of control | [3] 105 % of control | endpoint: mean survival time, dose: 200.0 mg/kg/injection, schedule: Q01DX009 (ip), vehicle: saline sonified 95 % of control | [8] 97 % of control

CC(=O)Nc1nc(Br)c2ccccc2c1-c1ccc(N(CCCl)CCCl)cc1
inactive: endpoint: mean survival time, dose: 3.13 mg/kg/injection, schedule: Q04DX003 (ip), vehicle: DMSO 104 % of control | endpoint: mean survival time, dose: 6.25 mg/kg/injection, schedule: Q04DX003 (ip), vehicle: DMSO 102 % of control | endpoint: mean survival time, dose: 12.5 mg/kg/injection, schedule: Q04DX003 (ip), vehicle: DMSO 101 % of control | endpoint: mean survival time, dose: 25.0 mg/kg/injection, schedule: Q04DX003 (ip), vehicle: DMSO 98 % of control

Cc1csc2nc[nH]c(=O)c12
inactive: [2] 97 % of control | [4] 98 % of control | [9] 105 % of control
